Test [1] deals with CD8 T cells from HLA-A2+ type 1 diabetic patients. Put plainly: Interferon-gamma cytokine ELISPOT with patient PBMCs. The test is classed as cell-based, human. The following applies: PBMCs of patients with new-onset type 1 diabetes and HLA-A2; peptide 10 μM; FIG. 8a. How it is done: The following ELISPOT assays were carried out using the methods substantially as described in Arif et al., (2004) J Clin Invest 113: 451-63.
Fresh peripheral blood mononuclear cells (PBMCs) in RPMI 1640 supplemented with antibiotics (TC medium; all Life Technologies) and 10% human AB serum (Harlan SeraLab, Leicestershire, UK) were dispensed into 48-well plates at a density of 2×10^6 cells in 0.5 ml supplemented with peptide to a final concentration of 10 μM and incubated at 37° C., 5% CO2, tilted by 5°. Control wells comprised TC medium containing an equivalent concentration of peptide diluent alone (DMSO). On day +1, 0.5 ml pre-warmed TC medium/10% AB was added and on day +2, non-adherent cells were re-suspended using pre-warmed TC medium/2% AB, washed, brought to a concentration of 1×10^6 cells/300 μl and 100 μl dispensed in triplicate into wells of 96-well ELISA plates (Nunc Maxisorp, Merck, Poole, UK) pre-blocked with 1% BSA in PBS and pre-coated with monoclonal anti-IFN-γ capture antibody (U-Cytech, Utrecht, NL). After capture at 37° C., 5% CO2 for 7 hours, cells were lysed in ice cold water, plates washed in PBS/Tween 20 and spots developed according to the manufacturer's instructions. Plates were dried and spots of 80-120 μm counted in a BioReader 3000 (BioSys, Karben, Germany). […]

The next test deals with soluble HLA-A2 molecules. The following applies: synthetic peptide; Chang et al., (2003) Tissue Antigens 62: 408-417; cited from earlier work.

For ALWGPDPAAA [PPI15-24], in test [1], the “CD8 T cell reactivity to PPI peptide by interferon-gamma ELISPOT” value is listed as “demonstrate the presence of CD8 T cells specific for”. The “Capability of being loaded in-vitro by soluble HLA-A2” value with soluble HLA-A2 molecules is “capable of being loaded in-vitro by soluble HLA-A2 molecules”.

WGPDPAAA [PPI17-24]: the “CD8 T cell reactivity to PPI peptide by interferon-gamma ELISPOT” value in test [1] is reported as “demonstrate the presence of CD8 T cells specific for”.

The values above are taken from patent US8906383B2, “T cell receptor having binding affinity for a peptide-MHC complex and uses thereof” (King's College London, priority 2007, dated 2014).
